Patent publication US20100197628A1, “METHODS OF TREATING PSYCHIATRIC, SUBSTANCE ABUSE, AND OTHER DISORDERS USING COMBINATIONS CONTAINING OMEGA-3 FATTY ACIDS” (priority 2003, published 2010)

How the values were obtained:
[1] = tested on: cytosolic choline resonance in the anterior cingulate cortex; assay: Proton MR spectroscopy of cytosolic choline resonance; assay type: in vivo, human; conditions: associated with a successful response; 500 mg twice daily, eight weeks
Procedure: (§1) In a second study, twelve depressed subjects (mean age 40) received 500 mg of an oral formulation of CDP-choline twice daily for eight weeks.

rats [2] = assay: Forced swim test (FST) with citicoline, cytidine and choline; assay type: in vivo, rat; conditions: IP; for antidepressant effects in the FST: citicoline 50-500 mg/kg, cytidine 23.8-238 mg/kg, choline 13.7-136.6 mg/kg (molar equivalent amounts)
Procedure: The effects of citicoline were examined in the forced swim test (FST), a rodent model of depression as described herein. Because citicoline is rapidly converted to cytidine and choline, their effects were also examined in the FST.
Forced Swim Test (FST): One hundred-sixty seven rats were used in the FST studies, which were conducted as described previously (Carlezon et al. Biol. Psychiatry 51:882-889, 2002) with minor modifications. The FST is a two-day procedure in which rats swim under conditions in which escape is not possible. On the first day, rats are placed in clear, 65 cm tall-25 cm diameter cylinders filled to 48 cm with 25° C. water. The rats initially struggle to escape from the water, but eventually they adopt a posture of immobility in which they make only the movements necessary to keep their heads above water. After 15 min of forced swimming, the rats are removed from the water, dried with towels, and placed in a warmed enclosure for 30 min. The cylinders are emptied and cleaned between rats. When the rats are re-tested 24 hours later under identical conditions in 5 min sessions, immobility is increased. Treatment with standard antidepressant drugs within the 24 hr period between the first exposure to forced swimming and re-testing can attenuate facilitated immobility, an effect correlated with antidepressant efficacy in humans (Porsolt et al. Nature 266:730-732 1977; Detke et al. Psychopharmacology 121:66-72 1995, Carlezon et al. Biol. Psychiatry 51:882-889, 2002).

depressed subjects = assay: 17-item Hamilton Depression Rating Scale (HDRS), eight weeks of treatment; assay type: in vivo, human
Procedure: as §1

[3] = cited from earlier work
brain phosphodiesters = assay: Phosphorus-31 MR spectroscopy of lipid metabolite resonances during chronic CDP-choline administration; assay type: in vivo, human; conditions: 18 healthy subjects, mean age 70; 500 mg oral daily for 6 weeks, weeks 6-12 half continued, half placebo; p=0.008
Procedure: (§2) To assess whether chronic CDP-choline administration leads to detectable changes in lipid metabolite resonances in phosphorus-31 MR spectra, eighteen healthy subjects (mean age: 70) were administered 500 mg of an oral formulation of CDP-choline daily for a six week period. From weeks 6 to 12, half of the subjects continued to receive CDP-choline and half received placebo in a double-blind fashion. […] CDP-choline administration, therefore, improves measures of verbal fluency and spatial memory in healthy adults and results in increased brain phospholipid synthesis in older adults, particularly during chronic administration.

healthy subjects = assay: Neuropsychological testing during chronic CDP-choline administration; assay type: in vivo, human; conditions: across all subjects at week twelve, 500 mg oral daily
Procedure: as §2

[4] = ingestion of large amounts in preclinical studies; cited from earlier work
rats [5] = assay: Locomotor activity after cytidine; assay type: in vivo, rat; conditions: 238 mg/kg, IP (optimally effective dose)
rats [6] = assay: Conditioned rewarding effects of cytidine; assay type: in vivo, rat; conditions: 238 mg/kg, IP
[7] = tested on: putamen, caudate and thalamus of children with ADHD; assay: T2 relaxometry fMRI (T2-RT), indirect measure of regional blood volume; assay type: in vivo, human; conditions: ongoing treatment
Excerpt: A new fMRI procedure (T2 relaxometry or “T2-RT”) was developed to indirectly assess blood volume in the striatum (caudate and putamen) of boys 6-12 years of age under steady-state conditions. Six healthy control boys (10.2±1.5 yr) and eleven boys diagnosed with ADHD (9.3±1.6 yr) served as subjects in the study to examine fMRI differences between unmedicated healthy controls and ADHD children on either placebo or the highest dose of methylphenidate. The healthy controls were screened using structured diagnostic interview (K-SADS-E; Orvaschel, H. & Puig-Antich, J., The schedule for affective disorders and schizophrenia for school-age children-epidemiologic version (Kiddie-SADS-E), University of Pittsburgh, Pittsburgh, Pa., 1987), were free of any major psychiatric disorder, and had no more than 3 out of 9 possible symptoms of inattention or hyperactivity-impulsivity by DSM-IV criteria. Children with ADHD were included if they met criteria for ADHD on structured diagnostic interview, and had at least 6 of 9 symptoms of inattention or hyperactivity-impulsivity. Children with ADHD took part in a triple blind (parent, child, rater), randomized, placebo-controlled study of effects of methylphenidate (0, 0.5, 0.8, 1.5 mg/kg in divided dose) on activity, attention, and fMRI. Children with ADHD were treated continuously for one week with placebo or a specific dose of methylphenidate and at the end of the week were tested for drug efficacy using objective measures of attention and activity and fMRI (See Methods) within 1-3 hours of their afternoon dose. The time between dose and testing was held constant for each subject throughout the four treatment conditions. Activity and attention were evaluated in unmedicated healthy controls using the same procedure as children with ADHD, and fMRI followed within the same time frame.
T2 relaxometry, a novel fMRI procedure, was used to derive steady state blood flow measures and to test for enduring medication effects. […] T2 relaxometry, like BOLD, hinges on the paramagnetic properties of deoxyhemoglobin. […]

children with ADHD [8] = assay: Infrared motion analysis of activity during the attention test; assay type: in vivo, human
Excerpt: A new fMRI procedure (T2 relaxometry or “T2-RT”) was developed to indirectly assess blood volume in the striatum (caudate and putamen) of boys 6-12 years of age under steady-state conditions. Six healthy control boys (10.2±1.5 yr) and eleven boys diagnosed with ADHD (9.3±1.6 yr) served as subjects in the study to examine fMRI differences between unmedicated healthy controls and ADHD children on either placebo or the highest dose of methylphenidate. The healthy controls were screened using structured diagnostic interview (K-SADS-E; Orvaschel, H. & Puig-Antich, J., The schedule for affective disorders and schizophrenia for school-age children-epidemiologic version (Kiddie-SADS-E), University of Pittsburgh, Pittsburgh, Pa., 1987), were free of any major psychiatric disorder, and had no more than 3 out of 9 possible symptoms of inattention or hyperactivity-impulsivity by DSM-IV criteria. Children with ADHD were included if they met criteria for ADHD on structured diagnostic interview, and had at least 6 of 9 symptoms of inattention or hyperactivity-impulsivity. Children with ADHD took part in a triple blind (parent, child, rater), randomized, placebo-controlled study of effects of methylphenidate (0, 0.5, 0.8, 1.5 mg/kg in divided dose) on activity, attention, and fMRI. […] Activity and attention were evaluated in unmedicated healthy controls using the same procedure as children with ADHD, and fMRI followed within the same time frame.
(§3) Highly accurate laboratory-based measures of activity and attention were obtained by having the children perform a computerized vigilance test while an infrared motion analysis system captured and recorded movements (see Methods). […]
Assessment of Activity and Attention. […] In brief, children sat in front of a computer and were evaluated using a simple GO/NO−GO CPT in which the subject responds to visual presentation of a target and withholds response to a non-target stimuli that appear in the center of the screen at a fixed 2 second […] interval (Greenberg et al., Psychopharmacol. Bull. 23: 279-282, 1987). […] Three 5-minute test sessions were recorded during a 30-minute test period while an infrared motion analysis system (Qualisys, Glastonbury, Conn.) recorded the movement of small reflective markers attached to the head, shoulder, elbow, and back of the child. […] Results were analyzed using the concept of “micro-events.” A new micro-event begins when the marker moves 1.0 millimeters or more from its most recent resting location, and is defined by its position and duration. The spatial scaling exponent is a measure of the spatial complexity of the movement path, and is calculated from the logarithmic rate of information decay at progressively lower levels of resolution. […]

children with ADHD [9] = assay: Computerized continuous performance task (CPT), measure of attention; assay type: in vivo, human
Procedure: A new fMRI procedure (T2 relaxometry or “T2-RT”) was developed to indirectly assess blood volume in the striatum (caudate and putamen) of boys 6-12 years of age under steady-state conditions. Six healthy control boys (10.2±1.5 yr) and eleven boys diagnosed with ADHD (9.3±1.6 yr) served as subjects in the study to examine fMRI differences between unmedicated healthy controls and ADHD children on either placebo or the highest dose of methylphenidate. […] Activity and attention were evaluated in unmedicated healthy controls using the same procedure as children with ADHD, and fMRI followed within the same time frame.
as §3
Assessment of Activity and Attention. […] In brief, children sat in front of a computer and were evaluated using a simple GO/NO−GO CPT in which the subject responds to visual presentation of a target and withholds response to a non-target stimuli that appear in the center of the screen at a fixed 2 second […] interval (Greenberg et al., Psychopharmacol. Bull. 23: 279-282, 1987). […]
Statistical Analyses. Differences between groups was assessed using ANCOVA with age as a covariate. […]

[10] = eight weeks, CDP-choline 500 mg twice daily, fluoxetine 20 mg/day
[11] = children with ADHD, methylphenidate vs placebo, P<0.05

With C[N+](C)(C)CCOP(=O)(O)OP(=O)([O-])OC[C@H]1O[C@@H](n2ccc(N)nc2=O)[C@H](O)[C@@H]1O [CDP-choline, cytidine 5′-diphosphocholine] the “proton MR spectroscopic cytosolic choline resonance in the anterior cingulate cortex” value [1] was “reduction”, the “antidepressant effects in the FST” value (rats [2]) was “did not have antidepressant effects” and the “effect in the FST at high doses” value (rats [2]; high doses of citicoline) was “small pro-depressant effects”. For the same compound, the “mean 17-item HDRS score with eight weeks of treatment” value (depressed subjects; CDP-choline 500 mg oral twice daily, fluoxetine open label 20 mg/day, p<0.0001) was 10±7, the “mean 17-item HDRS score before treatment” value (depressed subjects; baseline, CDP-choline 12 subjects, fluoxetine 41 subjects) was 21±3 and the “complete responses (subjects/total)” value (depressed subjects; [10]) was 6/12. For the same compound, the “complete responses, share of subjects” value (depressed subjects; [10]) was 50%, the “CDP-choline and/or its metabolites absorbed” value ([3]; orally administered) was “more than 99%” and the excreted in feces ([3]; orally administered) was “less than 1%”. For the same compound, the excretion route lung ([3]; share of dose) was 12.9%, the excretion route urine ([3]; share of dose) was 2.4% and the “rest of the dose metabolized and retained in tissues” value ([3]; share of dose) was 83.9%. The “brain phosphodiesters (phosphorus-31 MR)” value (brain phosphodiesters) was “significant increase”, the visuospatial learning (healthy subjects; p=0.0001) was “increases” and the verbal learning (healthy subjects; p=0.003) was “increases”. The verbal fluency (healthy subjects; p=0.07) was “increases” and the toxicity symptoms [4] was “common cholinergic symptoms”.

In the case of Nc1ccn([C@@H]2O[C@H](CO)[C@@H](O)[C@H]2O)c(=O)n1 [cytidine], the “antidepressant effects in the FST” value (rats [2]) is reported as “significant antidepressant effects”, the locomotor activity (rats [5]) is reported as “did not affect locomotor activity” and the conditioned rewarding effects (rats [6]) is reported as “did not affect locomotor activity or establish conditioned rewarding effects”.

With COC(=O)C(c1ccccc1)C1CCCCN1 (centres unmarked) [methylphenidate] the “T2-RT in right caudate” value ([7]; P=0.08) was “trend-level difference”, the T2-RT in thalamus ([7]; P>0.7) was “failed to exert significant effects” and the “T2-RT in right and left putamen” value ([7]; response tied to unmedicated activity state, P=0.006) was “significantly altered”. The “increase in spatial complexity” value (children with ADHD [8]; 5 ADHD children not objectively hyperactive on placebo, p>0.6) was under 8%, the “increase in spatial complexity” value (children with ADHD [8]; 6 subjects objectively hyperactive on placebo, P<0.02) was 52.6% and the “complexity of the movement pattern” value (children with ADHD [8]; [11]) was “increasing”. The “increase in time spent immobile” value (children with ADHD [8]; [11]) was 126%, the “response variability (S.D.) of response latency” value (children with ADHD [9]; children with ADHD on methylphenidate (placebo 242 msec), P<0.005) was 149 ms and the “performance accuracy on the CPT” value (children with ADHD [9]; children with ADHD, methylphenidate vs placebo, one week of treatment, P<0.05) was “enhancing”.
